Measurements: patent publication US20190309017A1, “GLUTAMINASE INHIBITORS” (Glutaminax, LLC, priority 2018, published 2019)
Values joined by “and” are separate entries in the source; they are usually repeats but may differ in a detail not shown here. Equal entries are not always repeated. Residues, ends and D or L forms follow the SMILES beside them. *: point of attachment. NHOH = ON*

Key:
[1] = tested on: IM-9 cells (Multiple Myeloma); assay: Cell kill of IM-9 cells, CyQuant NF assay (DNA content); assay type: cell-based
Procedure: Compounds 6 and 9 were tested for their ability to kill IM-9 cells (Multiple Myeloma). Approximately 25,000 cells were plated in RPMI medium (4 mM glutamine). Compounds 6 and 9 were dissolved in PBS and pH adjusted to neutrality (200 mM stock). Compound 9 was added at 1 mM, 2 mM and 4 mM concentrations into separate wells. Compound 6 was added at 0.25 mM and 1 mM concentrations into separate wells. The cells were incubated for 48 and 96 hours in the presence of […], and 48 and 72 hours in the presence of compound 6. Cell number was determined with the CyQuant NF assay (measures DNA content) according to manufacturer's instruction (Invitrogen). For the sake of clarity, compounds 6 and 9 are reproduced below: […]

[2] = tested on: Panc1 cells (Pancreatic cancer); assay: Cell kill of Panc1 cells, CyQuant NF assay (DNA content); assay type: cell-based
Procedure: Compounds 6 and 9 were tested with Panc1 cells (Pancreatic cancer) plated in DMEM medium (2 mM glutamine). Approximately 30,000 live cells were plated. Compounds were dissolved in PBS and pH adjusted to neutrality (200 mM stock). Compound 9 was added at 1 mM, 2 mM and 4 mM concentrations into separate wells. Compound 6 was added at 0.25 mM and 1 mM concentrations into separate wells. The cells were incubated for 48 and 96 hours in the presence of compound 9, and 48 and 72 hours in the presence of compound 6. Cell number was determined with the CyQuant NF assay (measures DNA content) according to manufacturer's instruction (Invitrogen).

[3] = 1 mM compound, Day 2, DMEM medium (2 mM glutamine)

SMILES | Cells killed v. control ([1]; 0.25 mM compound, Day 3, RPMI medium (4 mM glutamine)) | Cells killed v. control ([1]; 1 mM compound, Day 2, RPMI medium (4 mM glutamine)) | Cells killed v. control ([1]; 1 mM compound, Day 3, RPMI medium (4 mM glutamine)) | Cells killed v. control ([2]; 0.25 mM compound, Day 2, DMEM medium (2 mM glutamine)) | Cells killed v. control ([2]; 0.25 mM compound, Day 3, DMEM medium (2 mM glutamine)) | Cells killed v. control [2, 3] | Cells killed v. control ([2]; 1 mM compound, Day 3, DMEM medium (2 mM glutamine)) | Cells killed v. control ([1]; 1 mM compound, Day 4, RPMI medium (4 mM glutamine)) | Cells killed v. control ([1]; 2 mM compound, Day 2, RPMI medium (4 mM glutamine)) | Cells killed v. control ([1]; 2 mM compound, Day 4, RPMI medium (4 mM glutamine)) | Cells killed v. control ([1]; 4 mM compound, Day 2, RPMI medium (4 mM glutamine)) | Cells killed v. control ([1]; 4 mM compound, Day 4, RPMI medium (4 mM glutamine)) | Cells killed v. control ([2]; 2 mM compound, Day 2, DMEM medium (2 mM glutamine)) | Cells killed v. control ([2]; 2 mM compound, Day 4, DMEM medium (2 mM glutamine)) | Cells killed v. control ([2]; 4 mM compound, Day 2, DMEM medium (2 mM glutamine)) | Cells killed v. control ([2]; 4 mM compound, Day 4, DMEM medium (2 mM glutamine))
NC(=O)CC[C@H](NC(=O)CC[C@H](N)C(=O)O)C(=O)NO [Compound 6, β-Glu-Gln (NHOH mimetic)] | ~87% | ~83% | ~91% | ~32% | ~50% | ~66% | ~75% |  |  |  |  |  |  |  |  | 
NC(=O)CCC(NC(=O)C(N)CCC(=O)O)C(=O)NO (stereo not drawn) [Compound 9, α-Glu-Gln (NHOH mimetic)] (H-Glu-Gln-{NHOH}; configuration not given here) |  |  |  |  |  | ~0% |  | ~58% and 58% | ~29% | ~66% | ~61% | ~96% | ~7% | ~9% | ~11% | ~55%
